Experimental data: patent US20240150377A1, “MODULATORS OF CYSTIC FIBROSIS TRANSMEMBRANE CONDUCTANCE REGULATOR” (VERTEX PHARMACEUTICALS INCORPORATED, priority 2020, published 2024)
pEC50: −log10 of the molar value. Where two headings read alike, the source gives them in different places.

Target: CFTR (Homo sapiens, UniProt P13569)
Assay: Membrane potential dye, Enteroid Assay B
Format: cell-based
Details: for Ent. B Max Activity: chloride transport as % of triple combination control (Enteroid Assay B); for pEC50: read-out: Ent. B EC50
Description: Base medium (ADF+++) consisted of Advanced DMEM/Ham's F12, 2 mM Glutamax, 10 mM HEPES, […] penicillin/streptomycin.
Intestinal enteroid maintenance medium (IEMM) consisted of ADF+++, 1× B27 supplement, 1× N2 supplement, 1.25 mM N-acetyl cysteine, 10 mM Nicotinamide, 50 ng/mL hEGF, 10 nM Gastrin, 1 μg/mL hR-spondin-1, 100 ng/mL hNoggin, TGF-b type 1 inhibitor A-83-01, 100 μg/mL Primocin, 10 μM P38 MAPK inhibitor SB202190.
Bath 1 Buffer consisted of 1 mM MgCl2, 160 mM NaCl, 4.5 mM KCl, 10 mM HEPES, 10 mM Glucose, 2 mM CaCl2).
Chloride Free Buffer consisted of 1 mM Magnesium Gluconate, 2 mM Calcium Gluconate, 4.5 mM Potassium Gluconate, 160 mM Sodium Gluconate, 10 mM HEPES, 10 mM Glucose.
BathI Dye Solution consisted of Bath 1 Buffer, 0.04% Pluronic F127, 20 μM Methyl Oxonol, 30 μM CaCCinh-A01, 30 μM Chicago Sky Blue.
Chloride Free Dye Solution consisted of Chloride Free Buffer, 0.04% Pluronic F127, 20 μM Methyl Oxonol, 30 μM CaCCinh-A01, 30 μM Chicago Sky Blue.
Chloride Free Dye Stimulation Solution consisted of Chloride Free Dye Solution, 10 μM forskolin, 100 μM IBMX, and 300 nM Compound III.
Human intestinal epithelial enteroid cells were obtained from the Hubrecht Institute for Developmental Biology and Stem Cell Research, Utrecht, The Netherlands and expanded in T-Flasks as previously described (Dekkers J F, Wiegerinck C L, de Jonge H R, Bronsveld I, Janssens H M, de Winter-de Groot K M, Brandsma A M, de Jong N W M, Bijvelds M J C, Scholte B J, Nieuwenhuis E E S, van den Brink S, Clevers H, van der Ent C K, Middendorp S and M Beekman J M. A functional CFTR assay using primary cystic fibrosis intestinal organoids. Nat Med. 2013 July;19(7):939-45.).
3. Enteroid Cell Harvesting and Seeding
Cells were recovered in cell recovery solution, collected by centrifugation at 650 rpm for 5 min at 4° C., resuspended in TrypLE and incubated for 5 min at 37° C. Cells were then collected by centrifugation at 650 rpm for 5 min at 4° C. and resuspended in IEMM containing 10 μM ROCK inhibitor (RI). The cell suspension was passed through a 40 μm cell strainer and resuspended at 1×10^6 cells/mL in IEMM containing 10 μM RI. Cells were seeded at 5000 cells/well into multi-well plates and incubated for overnight at 37° C., 95% humidity and 5% CO2 prior to assay.
5. Membrane Potential Dye, Enteroid Assay B
Enteroid cells were incubated with test compound in IEMM for 18-24 hours at 37° C., 95% humidity and 5% CO2. […] Briefly, cells were washed 5 times in Bath 1 Buffer. Bath 1 Dye Solution was added and the cells were incubated for 25 min at room temperature. Following dye incubation, cells were washed 3 times in Chloride Free Dye Solution. Chloride transport was initiated by addition of Chloride Free Dye Stimulation Solution and the fluorescence signal was read for 15 min. […] Chloride transport was then expressed as a percentage of the chloride transport following treatment with 1 μM (14S)-8-[3-(2-{Dispiro[2.0.2.1]heptan-7-yl}ethoxy)-1H-pyrazol-1-yl]-12,12-dimethyl-2λ^6-thia-3,9,11,18,23-pentaazatetracyclo[17.3.1.111,14.05,10]tetracosa-1(22),5,7,9,19(23),20-hexaene-2,2,4-trione, 3 μM (R)-1-(2,2-difluorobenzo[d][1,3]dioxol-5-yl)-N-(1-(2,3-dihydroxypropyl)-6-fluoro-2-(1-hydroxy-2-methylpropan-2-yl)-1H-indol-5-yl)cyclopropanecarboxamide and 300 nM acute N-[2,4-bis(1,1-dimethylethyl)-5-hydroxyphenyl]-1,4-dihydro-4-oxoquinoline-3-carboxamide triple combination control (% Activity).

[1] = Table 8, human enteroid cells, 18-24 hours, acute 10 μM forskolin and 300 nM ivacaftor
[2] = Table 7, human enteroid cells, 18-24 hours, acute 10 μM forskolin and 300 nM ivacaftor

Sequence of CFTR (P13569 with tags, fused parts or gaps DEL508-508): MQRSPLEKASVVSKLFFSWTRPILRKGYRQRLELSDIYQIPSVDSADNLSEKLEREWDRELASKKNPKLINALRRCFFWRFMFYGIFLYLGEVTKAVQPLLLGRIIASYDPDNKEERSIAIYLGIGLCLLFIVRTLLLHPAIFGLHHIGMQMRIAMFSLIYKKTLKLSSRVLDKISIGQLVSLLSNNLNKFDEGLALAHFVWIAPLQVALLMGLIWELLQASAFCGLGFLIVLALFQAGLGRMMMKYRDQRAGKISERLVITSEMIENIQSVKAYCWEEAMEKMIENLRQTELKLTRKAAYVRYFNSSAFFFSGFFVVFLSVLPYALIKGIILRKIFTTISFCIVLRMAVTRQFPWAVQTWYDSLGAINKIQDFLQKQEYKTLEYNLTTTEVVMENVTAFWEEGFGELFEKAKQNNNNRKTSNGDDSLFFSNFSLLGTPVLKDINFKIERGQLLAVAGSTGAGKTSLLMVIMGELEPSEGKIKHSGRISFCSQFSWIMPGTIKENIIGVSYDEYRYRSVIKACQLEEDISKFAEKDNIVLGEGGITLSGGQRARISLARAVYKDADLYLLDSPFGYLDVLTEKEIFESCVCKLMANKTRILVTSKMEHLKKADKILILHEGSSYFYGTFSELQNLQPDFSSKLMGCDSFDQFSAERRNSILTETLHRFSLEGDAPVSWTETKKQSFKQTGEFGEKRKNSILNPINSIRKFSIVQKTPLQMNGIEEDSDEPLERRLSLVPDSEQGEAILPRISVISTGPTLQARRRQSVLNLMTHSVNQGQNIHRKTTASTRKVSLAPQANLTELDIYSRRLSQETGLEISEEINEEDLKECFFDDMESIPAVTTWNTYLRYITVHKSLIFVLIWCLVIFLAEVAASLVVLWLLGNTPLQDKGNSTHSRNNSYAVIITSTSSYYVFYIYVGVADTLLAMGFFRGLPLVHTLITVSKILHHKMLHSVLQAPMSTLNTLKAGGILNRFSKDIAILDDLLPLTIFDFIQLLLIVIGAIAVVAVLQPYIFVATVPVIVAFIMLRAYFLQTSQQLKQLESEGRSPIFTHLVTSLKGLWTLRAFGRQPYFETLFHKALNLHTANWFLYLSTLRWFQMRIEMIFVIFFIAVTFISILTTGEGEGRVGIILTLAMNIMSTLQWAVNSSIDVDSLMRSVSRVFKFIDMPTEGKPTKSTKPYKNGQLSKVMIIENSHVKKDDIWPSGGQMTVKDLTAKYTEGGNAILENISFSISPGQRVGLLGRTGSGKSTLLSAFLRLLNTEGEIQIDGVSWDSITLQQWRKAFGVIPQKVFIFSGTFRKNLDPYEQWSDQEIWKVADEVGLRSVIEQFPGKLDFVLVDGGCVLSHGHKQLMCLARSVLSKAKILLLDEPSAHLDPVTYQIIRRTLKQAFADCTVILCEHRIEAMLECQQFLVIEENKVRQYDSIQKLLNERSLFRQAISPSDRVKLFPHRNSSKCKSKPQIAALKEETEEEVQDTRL

Row | Ent. B Max Activity (Table 8) | pEC50 [1] | Ent. B Max Activity (%) (Table 9) | SMILES | also measured
1 | +++ (+++ is >60%) | > 6.00 | – | Cc1cccc(C)c1-c1cc2nc(n1)NS(=O)(=O)c1cccc(c1)C(=O)N(CCCCC(C)(C)O)[C@H](CC(C)(C)C)CO2 [Compound 107, (11R)-6-(2,6-Dimethylphenyl)-11-(2,2-dimethylpropyl)-12-(5-hydroxy-5-methyl-hexyl)-2,2-dioxo-9-oxa-2λ^6-thia-3,5,12,19-tetrazatricyclo[12.3.1.14,8]nonadeca-1(18),4(19),5,7,14,16-hexaen-13-one] | –
2 | ++ (++ is 30-60%) | 4.52 to 5.52 | – | CCOC(=O)CCCCN1C(=O)c2cc(nn2C)S(=O)(=O)Nc2nc(cc(-c3c(C)cccc3C)n2)OC[C@H]1CC(C)(C)C [Compound 922] | –
3 | +++ (+++ is >60%) | > 6.00 | – | Cc1cccc(C)c1-c1cc2nc(n1)NS(=O)(=O)c1cccc(c1)C(=O)N(CC1CC(C)(O)C1)[C@H](CC(C)(C)C)CO2 (stereo partly drawn) [Compound 664] | –
4 | +++ (+++ is >60%) | > 6.00 | – | Cc1cccc(C)c1-c1cc2nc(n1)NS(=O)(=O)c1cccc(c1)C(=O)N(Cc1cccnc1)[C@H](CC(C)(C)C)CO2 [Compound 1086] | –
5 | – | – | +++ (+++ is >600%) | Cc1cccc(C)c1-c1cc2nc(n1)NS(=O)(=O)c1cccc(c1)C(=O)N(Cc1ccc(-c3cn[nH]c3)cc1)[C@H](CC(C)(C)C)CO2 [Compound 317] | pEC50 (Table 9): > 6.00
6 | ++ (++ is 30-60%) | > 6.00 | – | Cc1cccc(C)c1-c1cc2nc(n1)NS(=O)(=O)c1cc(nn1C)C(=O)N(Cc1ccccc1)[C@H](CC(C)(C)C)CO2 [Compound 928] | –
7 | – | – | +++ (+++ is >600%) | Cc1cccc(C)c1-c1cc2nc(n1)NS(=O)(=O)c1cccc(c1)C(=O)N(Cc1ccnc(N)c1)[C@H](CC(C)(C)C)CO2 [Compound 61, (11R)-12-[(2-Amino-4-pyridyl)methyl]-6-(2,6-dimethylphenyl)-11-(2,2-dimethylpropyl)-2,2-dioxo-9-oxa-2λ^6-thia-3,5,12,19-tetrazatricyclo[12.3.1.14,8]nonadeca-1(18),4(19),5,7,14,16-hexaen-13-one] | pEC50 (Table 9): > 6.00
8 | ++ (++ is 30-60%) | > 6.00 | – | Cc1cccc(C)c1-c1cc2nc(n1)NS(=O)(=O)c1cc(nn1C)C(=O)N(Cc1ncccn1)[C@H](CC(C)(C)C)CO2 [Compound 70, (10R)-15-(2,6-Dimethylphenyl)-10-(2,2-dimethylpropyl)-5-methyl-3,3-dioxo-9-(pyrimidin-2-ylmethyl)-12-oxa-3λ^6-thia-2,5,6,9,16,17-hexazatricyclo[11.3.1.14,7]octadeca-1(17),4(18),6,13,15-pentaen-8-one] | –
9 | ++ (++ is 30-60%) | > 6.00 | – | Cc1cccc(C)c1-c1cc2nc(n1)NS(=O)(=O)c1cccc(c1)C(=O)N(CC(C)(C)C)[C@H](CC(C)C)CO2 [Compound 400] | –
10 | – | – | +++ (+++ is >600%) | C=C(C)c1cnc(CN2C(=O)c3cccc(c3)S(=O)(=O)Nc3nc(cc(-c4c(C)cccc4C)n3)OC[C@H]2CC(C)(C)C)nc1 [Compound 1078] | pEC50 (Table 9): > 6.00
11 | – | – | – | Cc1cccc(C)c1-c1cc2nc(n1)NS(=O)(=O)c1cccc(c1)C(=O)N(CCCC(N)=O)[C@H](CC(C)C)CO2 [Compound 407] | Ent. B Max Activity (Table 7): +++ (+++ is >60%); pEC50 [2]: 5.52 to 6.00
12 | – | – | – | COC(=O)N(C)CCN1C(=O)c2cccc(c2)S(=O)(=O)Nc2nc(cc(-c3c(C)cccc3C)n2)OC[C@H]1CC(C)C [Compound 410] | Ent. B Max Activity (Table 7): +++ (+++ is >60%); pEC50 [2]: > 6.00
13 | – | – | +++ (+++ is >600%) | Cc1cccc(C)c1-c1cc2nc(n1)NS(=O)(=O)c1cccc(c1)C(=O)N(Cc1ccc(N)nc1)[C@H](CC(C)(C)C)CO2 [Compound 387] | pEC50 (Table 9): > 6.00
14 | +++ (+++ is >60%) | > 6.00 | – | Cc1cccc(C)c1-c1cc2nc(n1)NS(=O)(=O)c1cccc(c1)C(=O)N(CCCO)[C@H](CC(C)C)CO2 [Compound 96, (11R)-6-(2,6-Dimethylphenyl)-12-(3-hydroxypropyl)-11-(2-methylpropyl)-9-oxa-2λ^6-thia-3,5,12,19-tetraazatricyclo[12.3.1.14,8]nonadeca-1(18),4,6,8(19),14,16-hexaene-2,2,13-trione] | –
15 | – | – | – | Cc1cccc(C)c1-c1cc2nc(n1)NS(=O)(=O)c1cccc(c1)C(=O)N(CCC(C)(C)C#N)[C@H](CC(C)C)CO2 [Compound 1105] | Ent. B Max Activity (Table 7): +++ (+++ is >60%); pEC50 [2]: > 6.00
16 | +++ (+++ is >60%) | > 6.00 | – | Cc1cccc(C)c1-c1cc2nc(n1)NS(=O)(=O)c1cccc(c1)C(=O)N(Cc1cccc(NC(=O)OC(C)C)c1)[C@H](CC(C)(C)C)CO2 [Compound 507] | –
17 | – | – | +++ (+++ is >600%) | Cc1cccc(C)c1-c1cc2nc(n1)NS(=O)(=O)c1cccc(c1)C(=O)N(CCC1CCOCC1)[C@@H]1CN(C3CC4(CCCC4)C3)C[C@H]1O2 [Compound 1191, (3R,7R)-19-(2,6-Dimethylphenyl)-8-[2-(oxan-4-yl)ethyl]-5-{spiro[3.4]octan-2-yl}-2-oxa-15λ^6-thia-5,8,16,18,21-pentaazatetracyclo[15.3.1.110,14.03,7]docosa-1(20),10(22),11,13,17(21),18-hexaene-9,15,15-trione] | pEC50 (Table 9): > 6.00
18 | – | – | +++ (+++ is >600%) | Cc1cccc(C)c1-c1cc2nc(n1)NS(=O)(=O)c1cccc(c1)C(=O)N(Cc1ccc(C3CNCN3C)cc1)[C@H](CC(C)(C)C)CO2 (stereo partly drawn) [Compound 316] | –
19 | +++ (+++ is >60%) | > 6.00 | – | Cc1cccc(C)c1-c1cc2nc(n1)NS(=O)(=O)c1cccc(c1)C(=O)N(Cc1cc(C(C)(C)O)n(C)n1)[C@H](CC(C)(C)C)CO2 [Compound 849] | –
20 | +++ (+++ is >60%) | > 6.00 | – | Cc1cccc(C)c1-c1cc2nc(n1)NS(=O)(=O)c1cccc(c1)C(=O)N(CCc1ccc(C(=O)N(C)C)cc1)[C@H](CC(C)(C)C)CO2 [Compound 394] | –
21 | – | – | +++ (+++ is >600%) | Cc1cccc(C)c1-c1cc2nc(n1)NS(=O)(=O)c1cccc(c1)C(=O)N(CC(C)(C)C)[C@H](CC(C)(C)C)CO2 [Compound 399] | pEC50 (Table 9): > 6.00
22 | – | – | – | Cc1cccc(C)c1-c1cc2nc(n1)NS(=O)(=O)c1cccc(c1)C(=O)N(CCOC(F)(F)F)[C@H](CC(C)C)CO2 [Compound 1103] | Ent. B Max Activity (Table 7): +++ (+++ is >60%); pEC50 [2]: > 6.00
23 | +++ (+++ is >60%) | > 6.00 | – | Cc1cccc(C)c1-c1cc2nc(n1)NS(=O)(=O)c1cccc(n1)C(=O)N(Cc1ccc(C(C)(C)O)cc1)[C@H](CC(C)(C)C)CO2 [Compound 1092] | –
24 | – | – | +++ (+++ is >600%) | Cc1cccc(C)c1-c1cc2nc(n1)NS(=O)(=O)c1cccc(c1)C(=O)N(Cc1ccc(CC(N)=O)cc1)[C@H](CC(C)(C)C)CO2 [Compound 847] | pEC50 (Table 9): > 6.00
25 | +++ (+++ is >60%) | > 6.00 | – | COc1ncc(CN2C(=O)c3cccc(c3)S(=O)(=O)Nc3nc(cc(-c4c(C)cccc4C)n3)OC[C@H]2CC(C)(C)C)cn1 [Compound 1101] | –
26 | +++ (+++ is >60%) | > 6.00 | – | Cc1cccc(C)c1-c1cc2nc(n1)NS(=O)(=O)c1cccc(c1)C(=O)N(CCC(C)(C)C(C)(C)O)[C@H](CC(C)(C)C)CO2 [Compound 334] | –
